Measurements taken from US20230338395A1, “PROPHYLAXIS AND TREATMENT OF CORONAVIRUS INFECTION” (priority 2020, published 2023).

Legend:
SARS-CoV-1 = test system: SARS-CoV-1; parameters: species or system mice; settings: mouse, in vivo
classical swine fever = test system: classical swine fever; parameters: species or system pigs; settings: pig, in vivo, 0.1 mg/kg
[1] = test system: lethal respiratory virus infections; settings: aged mice, intranasal treatment; cited from earlier work
SARS-CoV-2 = test: Pulmonary inflammation after SARS-CoV-2 challenge in MRL-Fas lpr mice; assay type: in vivo; settings: 40 mg/kg/day intraperitoneal from around day 15 after viral clearance, lungs inspected at day 40 post infection
COVID-19 = settings: severely ill COVID-19 patients; cited from earlier work
tlr7 gene expression = settings: SLE-patients; cited from earlier work

## Polyinosinic:polycytidylic acid [poly(IC)]
SARS-CoV-1
  protection compared with the other tlr agonists: most protective
  survival: increase survival
Classical swine fever
  infection fatality rate: lower than the infection fatality rate of the untreated subpopulation
[1]
  protection from lethal respiratory virus infections: protects aged mice from lethal respiratory virus infections

## CCN(CCO)CCCC(C)Nc1ccnc2cc(Cl)ccc12 (stereo not shown) [hydroxychloroquine]
SARS-CoV-2
  severity of pulmonary inflammation (score 0-4): improved

## C=C1CC[C@H](O)C/C1=C/C=C1\CCC[C@]2(C)[C@@H]([C@H](C)CCCC(C)C)CC[C@@H]12 [vitamin D3]
COVID-19
  protection from thrombosis and embolism: protect severely ill COVID-19 patients from thrombosis and embolism
tlr7 gene expression
  tlr7 gene expression: down-regulating tlr7 gene expression
